Entries after “also recorded” stand apart in the source; their conditions may differ.
What was measured:
[1] = system: subcutaneous MDA-MB-231 models; experiment: Endogenous therapy study (CT-based tumour growth, survival, [18F]FDG PET); type: in vivo, NOD/SCID mice
Method: Female NOD/SCID mice at 5–6 weeks of age (Janvier, France) was used for developing subcutaneous TNBC tumour. Animals were housed in 20–24 °C in a 12 h day light cycle. For each mouse, 3 × 10^6 MDA-MB-231 cells were suspended in a 1:1 (volume) mixture of Culture media: Matrigel® matrix (Corning®, Product No: 356237). Mice were inoculated with this cell suspension (max 200 µl) subcutaneously in the right flank. Tumour growth was monitored daily using calliper measurements. Tumour volume was calculated daily according to the formula Tumourvolume=TumourLength×Tumourbreadth^2×0.52
Upon reaching of a tumour volume of 500 mm^3, animals were proceeded for experiments. For biodistribution study animals were administered with [^123I]PARPi-01 (n = 3). For therapy studies animals were randomized for control (n = 10) or [^125I]PARPi-01 administration (n = 10). Randomisation was done based on equivalent distribution of tumour volumes. In addition to the daily calliper measurements image analysis of CT based tumour volumes was blinded to avoid bias. Animals were sacrificed upon completion of biodistribution study or upon reaching a humane end point for the therapy study. Humane end point is determined as reaching of either of the following conditions: 15 mm tumour diameter, 1500 mm^3 tumour volume, or development of ulcers/ascites.
Mice were administered intravenously via lateral tail vain with Saline (0.9% NaCl) or [^125I]PARPi-01 (8.15 ± 2.9 MBq/dose) in four doses at 10-day intervals. The tumour volume was measured using [^18F]FDG based PET/CT (Trifoil, USA) once per week. [^18F]FDG (2.3 ± 0.4 MBq, AAA, Düsseldorf, Germany) was intraperitoneally administered and scanned 30 min later. Upon reaching 520 mm^3 tumour volume, one additional CT imaging per week (Trifoil, USA) apart from the PET/CT was performed for monitoring tumour growth.
After injection with [^18F]FDG, the mice were placed on the scanner bed and the CT scan was initiated. The exposure settings used were as follows: 130 uA, 75 kVp, 230 ms exposure time, and 360° rotation with 512 views; the duration of the CT scans was ~ 5 min. A dynamic 30 min PET scan was initiated at the end of the CT scan. […] During the scans, the isoflurane concentration was adapted to achieve a respiratory rate between 75–50 breaths per minute. Mice were maintained at 1% Isoflurane and heated at 37 °C from anaesthesia induction to the end of imaging. The CT images were reconstructed using a Feldkamp filtered back projection reconstruction process to a voxel size of 0.154 × 0.154 × 0.154 mm in a 592 × 592 × 560 matrix. Using vendor software, the CT values were converted into Hounsfield units (HU) using the following formula HU=1000×μt-μw÷μw where µw is the linear attenuation coefficient of the water and µt is the linear attenuation coefficient of the tissue. The PET data were reconstructed using a 3D ordered-subset expectation maximization (i.e., OSEM-3D with three iterations and eight subsets) with a maximum a posteriori probability algorithm (30 iterations) into a 240 × 240 × 192 image matrix (resulting in final voxel dimensions of 0.25 × 0.25 × 0.597 mm). PET normalization, CT attenuation correction, and CT scatter correction were applied to all PET reconstructions. The PET images were automatically aligned to the CT using a custom-made transformation in PMOD software package from a capillary phantom.
All statistical analyses were performed using the Graph-Pad Prism software (Version 9.1.1). Biodistribution data is expressed as mean ± standard deviation. Kaplan–Meier Survival curve was analysed using survival analysis (Log rank Mantel-Cox test). The data points of the normalized tumour volume as a function of the time of the groups (Control, ^125I-PARPi, Control—excluded ulcers, ^125I-PARPi—excluded ulcers) were subjected to nonlinear regression analysis using the exponential growth formula Y = Y0*exp(k*x) (Malthusian). Accordingly, the doubling time is equal to ln(2)/k. […]

[2] = system: MDA-MB-231 tumour tissue, liver, thyroid; experiment: Apoptosis (TUNEL) staining of ex vivo tissue sections; type: in vivo, NOD/SCID mice
Method: Organs excised and retrieved from control (n = 3) and therapy mice (n = 3) were fixed with 4% PFA overnight at 4 °C. For cryopreservation, the organs were kept for 2–3 days at 4 °C in 30% sucrose Cryosections (6 µm) of excised and preserved organs were made using a cryostat (Leica, CM3050S). For TUNEL fluorescence quantification, therapy mice (n = 3) and control mice (n = 3) slices were stained simultaneously. The TUNEL staining kit (Roche # 11684795910) was used and protocol was followed as mentioned in the staining kit. Tissues were washed with PBS and permeabilised with 0.1 % Triton-X in 0.1 % […] on ice for 2 min. Following permeabilization, sections were incubated with TUNEL reaction mixture (Fluorescence labelled Terminal deoxynucleotidyl transferase enzyme dissolved in nucleotide buffer) for 1 h at 37 °C. After PBS wash, the cells were mounted with RotiMount® Vectashield containing DAPI and analysed using fluorescence microscopy (Zen Lite, Carl Zeiss). The images were processed and quantified using CellProfiler 3.0 software.

MCF-7 = experiment: Nuclear uptake, subcellular fractionation with gamma counter; type: cell-based; settings: 24 h, 1 MBq/10^6 cells
Method: (§1) Breast cancer cells were seeded (0.5 × 10^6) in a 12-well plate and treated with [^125I]PARPi-01 (1 MBq/10^6 cells) for 24 h. Subcellular fractionation was performed using a Subcellular Fractionation kit (ThermoFischer inc., #78840. Protein concertation was assessed using BCA assay. SDS-PAGE was performed using the fractions (30 µg/lane) and Any KD Mini-Protean TGX gels (90 V for 1.5 h). The separated proteins were transferred to PVDF membranes using a wet blotting (60 V, 2 h) technique. The blots were then blocked with 1% Milk/TBST and incubated with a primary antibody (anti-PARP1 (1:1000); Abcam ab227244; anti-GAPDH (1:4000); cell signalling 14C10, or anti-Histon H3 1:1000) Abcam ab1791). For the phosphorimager analysis, after blotting, the blots were sandwiched with a Fujifilm Imaging plate for Bioanalyzer (BAS-MS 2040), and incubated overnight, and the protein bound activity was imaged using a phosphorimager (Typhoon FLA 7000 version 1.2). To assess the tracer uptake, both fractions were measured using a gamma counter (Wizard^2, Perkin Elmer, USA).

MDA-MB-231 = experiment: as above; type: cell-based; settings: 24 h, 1 MBq/10^6 cells
Method: as §1

MDA-MB-468 = experiment: as above; type: cell-based; settings: 24 h, 1 MBq/10^6 cells
Method: as §1

MDA-MB-231 cells [3] = system: MDA-MB-231 cells; set-up: method as in PMID 35008392; settings: cited from earlier work
MDA-MB-231 cells [4] = system: MDA-MB-231 cells; set-up: method as in PMID 35008392; settings: cited from earlier work; remark: listed apart in the source

O=C(c1ccc([125I])cc1)N1CCN(C(=O)c2cc(Cc3n[nH]c(=O)c4ccccc34)ccc2F)CC1 [[^125I]PARPi-01]
radiotoxicity in liver and thyroid ([1]; 4 doses, 10 MBq/dose): No radiotoxicity was detected | tumour doubling time ([1]; CT-based, excluding animals sacrificed for ulcers/ascites, n = 5): 15.07 days | tumour doubling time ([1]; CT-image-based, 4 doses 10 days apart, all animals n = 10): 14.2 days | median survival ([1]; all animals n = 10, not significant vs control (P = 0.2505)): 36 days | median survival time ([1]; excluding animals sacrificed for ulcers/ascites): 38 | [18F]FDG PET SUV values and tumour metabolic volumes, therapy vs control ([1]; mouse, in vivo): did not show significant difference | apoptosis in liver or thyroid ([2]; therapy group): did not show any noticeable apoptosis; also recorded: no noticeable apoptosis | percentage of nuclei in tumour positive for apoptosis ([2]; therapy group n = 3, P < 0.05 vs control): 52.5 ± 19.0% | nuclear tracer localization, of total tracer (MCF-7): more than 40% | nuclear tracer localization, of total tracer (MDA-MB-231): > 75% | nuclear tracer localization, of total tracer (MDA-MB-468): > 75% | colony formation after treatment (MDA-MB-231 cells [3]): significant reduction in colony formation | level of apoptosis induction (MDA-MB-231 cells [4]): remained comparable low

— article PMC9474773, “PARP targeted Auger emitter therapy with [^125I]PARPi-01 for triple-negative breast cancer” (EJNMMI Research, 2022)
